Values quoted from earlier work, collected in US8513439B2, “Antidepressant oral pharmaceutical compositions” (Wockhardt Limited, priority 2005, dated 2013).

Assays:
histaminergic receptors = conditions: in vitro
dopaminergic receptors = conditions: in vitro
[1] = in vivo
adrenergic receptors = conditions: in vitro
cholinergic receptors = conditions: in vitro

Compound: CNCC[C@H](Oc1cccc2ccccc12)c1cccs1 [Duloxetine, (S)—N-methyl-3-(1-naphthyloxy)-3-(2-thienyl)propan-1-amine]
- affinity for histaminergic receptors (histaminergic receptors): no significant affinity
- affinity for dopaminergic receptors (dopaminergic receptors): no significant affinity
- enzymes metabolizing to inactive metabolites in the liver [1]: CYP1A2 and CYP2D6
- protein bound [1]: > 90%
- dosage hydrolyzed to 1-naphthol (pH of 1.0, within one hour): 50%
- dosage degraded to 1-Naphthol (pH of 2.0, in one hour): 10%
- time for 10% degradation (pH of 4.0): up to 63 hours
- inhibition of monoamine oxidase (MAO) (monoamine oxidase (MAO)): does not inhibit
- affinity for adrenergic receptors (adrenergic receptors): no significant affinity
- affinity for cholinergic receptors (cholinergic receptors): no significant affinity
